≈ marks a conversion by molar mass, not a printed value.
How the values were obtained:
[1] = test system: SARS-CoV-2 USA_WA1/2020 strain; assay: microbe, parasite or virus in culture; assay type: cell-based
in vitro [2] = conditions: African green monkey
[3] = test system: SARS-CoV-2 USA_WA1/2020 strain; assay: Activity against SARS-CoV-2 in Vero E6 cells (cytopathic effect, visual and neutral red); assay type: cell-based; conditions: read-out: EC50 (mM/mL) USA_WA1/2020 strain
in vitro [4] = conditions: African green monkey; remark: listed apart in the source
SARS-CoV-2 nsp14 = SARS-CoV-2 nsp14 (Severe acute respiratory syndrome coronavirus 2, UniProt P0DTD1); conditions: cited from earlier work
[5] = Severe acute respiratory syndrome coronavirus 2, Vero 76, Neutral red (Cytopathic effect/Toxicity), Vero 76 cells, read-out: EC50 (mg/mL) USA_WA1/2020 strain
[6] = Severe acute respiratory syndrome coronavirus 2, Vero 76, Visual (Cytopathic effect/Toxicity), Vero 76 cells, read-out: EC50 (mg/mL) USA_WA1/2020 strain
[7] = CC50 (mg/mL) Vero 76, Neutral red (Cytopathic effect/Toxicity)
[8] = CC50 (mg/mL) Vero 76, Visual (Cytopathic effect/Toxicity)
[9] = Severe acute respiratory syndrome coronavirus 2, Vero C1008, Neutral red (Cytopathic effect/Toxicity)
[10] = Severe acute respiratory syndrome coronavirus 2, Vero C1008, Visual (Cytopathic effect/Toxicity)
[11] = CC50 (mM/mL) Vero E6, Neutral red (Cytopathic effect/Toxicity)
[12] = CC50 (mM/mL) Vero E6, Visual (Cytopathic effect/Toxicity)

Compound | EC50 [3, 9] | EC50 [3, 10] | CC50 (in vitro [4]; [11]) | CC50 (in vitro [4]; [12]) | further results
Nc1ncnn2c([C@@H]3O[C@H](CO)[C@@H](O)[C@H]3O)cc(/C=C/c3ccc(C(F)(F)F)cc3)c12 [Compound 4.2e, 7-((E)-4-(Trifluoromethyl)styryl)-4-aza-7,9-dideazaadenosine] | – | – | – | – | EC50 [1, 5]: > 0.032 mg/mL; EC50 [1, 6]: > 0.032 mg/mL; activity against SARS-CoV-2 (in words) ([1]; Vero 76 cells): inactive; CC50 (in vitro [2]; [7]): 32 µg/mL (≈ 73.3 µM); CC50 (in vitro [2]; [8]): 32 µg/mL (≈ 73.3 µM)
Nc1ncnn2c([C@@H]3O[C@H](CO)[C@@H](O)[C@H]3O)cc(/C=C/C3CC3)c12 [Compound 4.2h, 7-((E)-2-Cyclopropylvinyl)-4-aza-7,9-dideazaadenosine] | > 0.1 mM | > 0.1 mM | > 0.1 mM | > 0.1 mM | –
Cc1ccc(/C=C/c2cc([C@@H]3O[C@H](CO)[C@@H](O)[C@H]3O)n3ncnc(N)c23)cc1 [Compound 4.2c, 7-((E)-4-Methylstyryl)-4-aza-7,9-dideazaadnosine] | – | – | – | – | EC50 against SARS-CoV-2 [1]: 0.3 µg/mL (≈ 0.784 µM); activity against SARS-CoV-2 (in words) ([1]; Vero 76 cells): potent antiviral activity
Nc1ncnc2c1ncn2[C@@H]1O[C@H](CSCCNC(=O)NCCc2ccccc2)[C@@H](O)[C@H]1O [DS0464] | – | – | – | – | concentration range of nsp14 inhibition (in words) (SARS-CoV-2 nsp14): low-micromolar
Nc1ncnn2c([C@@H]3O[C@H](CO)[C@@H](O)[C@H]3O)cc(/C=C/c3ccc(Cl)cc3)c12 [Compound 4.2f, 7-((E)-4-Chlorostyryl)-4-aza-7,9-dideazaadenosine] | > 0.032 mM | > 0.032 mM | 0.032 mM | 0.032 mM | –
Nc1ncnn2c([C@@H]3O[C@H](CO)[C@@H](O)[C@H]3O)cc(/C=C/c3cccs3)c12 [Compound 4.2j, 7-((E)-2-(Thiophen-2-yl)vinyl)-4-aza-7,9-dideazaadenosine] | > 0.032 mM | > 0.028 mM | 0.032 mM | 0.028 mM | –
CCC/C=C/c1cc([C@@H]2O[C@H](CO)[C@@H](O)[C@H]2O)n2ncnc(N)c12 [Compound 4.2m, 7-((E)-pent-1-en-1-yl)-4-aza-7,9-dideazaadenosine] | > 0.1 mM | > 0.1 mM | > 0.1 mM | > 0.1 mM | –
Nc1ncnn2c([C@@H]3O[C@H](CO)[C@@H](O)[C@H]3O)cc(/C=C/c3ccsc3)c12 [Compound 4.2k, 7-((E)-2-(Thiophen-3-yl)vinyl)-4-aza-7,9-dideazaadenosine] | > 0.0031 mM | > 0.0032 mM | 0.0031 mM | 0.0032 mM | –
C=Cc1cc([C@@H]2O[C@H](CO)[C@@H](O)[C@H]2O)n2ncnc(N)c12 [Compound 4.2a, 7-Vinyl-4-aza-7,9-dideazaadenosine] | – | – | – | – | EC50 [1, 5]: 0.00016 mg/mL (≈ 0.547 µM); EC50 ([1]; Severe acute respiratory syndrome coronavirus 2, Vero 76, Vero 76 cells, read-out: EC50 against SARS-CoV-2): 0.00016 mg/mL (≈ 0.547 µM); EC50 [1, 6]: < 0.0001 mg/mL; activity against SARS-CoV-2 (in words) ([1]; Vero 76 cells): active; cytotoxicity (in words) (Vero 76 cells): significant cytotoxicity; CC50 (in vitro [2]; [7]): 4.7 µg/mL (≈ 16.1 µM); CC50 (in vitro [2]; [8]): 3.2 µg/mL (≈ 10.9 µM)
N#Cc1cn([C@@H]2O[C@H](CSCC[C@H](N)C(=O)O)C(O)[C@@H]2O)c2ncnc(N)c12 (stereo partly drawn) [SS148] | – | – | – | – | concentration range of nsp14 inhibition (in words) (SARS-CoV-2 nsp14): submicromolar to nanomolar
Nc1ncnn2c([C@@H]3O[C@H](CO)[C@@H](O)[C@H]3O)cc(/C=C/c3cccc(F)c3)c12 [Compound 4.2g, 7-((E)-3-Fluorostyryl)-4-aza-7,9-dideazaadenosine] | > 0.032 mM | > 0.032 mM | 0.032 mM | 0.032 mM | –
Nc1ncnn2c([C@@H]3O[C@H](CO)[C@@H](O)[C@H]3O)cc(/C=C/C3CCCC3)c12 [Compound 4.2i, 7-((E)-2-Cyclopentylvinyl)-4-aza-7,9-dideazaadenosine] | > 0.1 mM | > 0.1 mM | > 0.1 mM | > 0.1 mM | –
Nc1ncnn2c([C@@H]3O[C@H](CO)[C@@H](O)[C@H]3O)cc(/C=C/C3CCCCC3)c12 [Compound 4.2l, 7-((E)-2-Cyclohexylvinyl)-4-aza-7,9-dideazaadenosine] | > 0.1 mM | > 0.1 mM | > 0.1 mM | > 0.1 mM | –
Nc1ncnn2c([C@@H]3O[C@H](CO)[C@@H](O)[C@H]3O)cc(/C=C/c3ccccn3)c12 [Compound 4.2b, 7-((E)-2-(Pyridin-2-yl)vinyl)-4-aza-7,9-dideazaadenosine] | – | – | – | – | EC50 [1, 5]: < 0.0001 mg/mL; EC50 [1, 6]: > 0.00032 mg/mL; cytotoxicity (in words) (Vero 76 cells): potent cytotoxicity; CC50 (in vitro [2]; [7]): 0.32 µg/mL (≈ 0.866 µM); CC50 (in vitro [2]; [8]): 0.32 µg/mL (≈ 0.866 µM)
Nc1ncnn2c([C@@H]3O[C@H](CO)[C@@H](O)[C@H]3O)cc(/C=C/c3ccc(F)cc3)c12 [Compound 4.2d, 7-((E)-4-Fluorostyryl)-4-aza-7,9-dideazaadenosine] | – | – | – | – | EC50 [1, 5]: > 0.0058 mg/mL; EC50 [1, 6]: > 0.0032 mg/mL; CC50 (in vitro [2]; [7]): 5.8 µg/mL (≈ 15 µM); CC50 (in vitro [2]; [8]): 3.2 µg/mL (≈ 8.28 µM)
